# Source: patent US6664406B1, “Nervonic acid derivatives, their preparation and use” (Croda International PLC, priority 1999, dated 2003)
# Like-named read-outs stand apart in the source and are kept apart here. Marks after values point to notes of the source that are not given here.
# What was measured:
# [1] = system: acute EAE in the Lewis rat; experiment: Prophylactic effect of glyceryl trinervonate on acute EAE (Comparative Example); format: in vivo
# Description: Prophylactic effects of glyceryl trinervonate (GTN, Description 4) were assessed on acute EAE in the Lewis rat. Induction and Assessment of EAE was as for Example 4. Dosing regime involved oral administration in Miglyol 810 five days prior to inoculation and for 20 days post-inoculation. (Refer to Example 8 regarding insignificance of use of PBS or Miglyol vehicles).
# [2] = Nervonic acid composition of total polar lipid from rat brain (Example 9); format: in vivo; conditions: after Example 6 treatments; NA:GLA at both low and high doses
# Description: (§1) Upon termination of certain biological evaluations, rat or mice brains were extracted and the fatty acid composition of total polar lipids from rat/mouse brain was determined.
# (§2) Biological material was sent for analysis to Dr J. Hendersen at the University of Stirling, Institute of Aquaculture, Scotland. Analyses were carried out on two batches of experiments (detailed respectively in Example 6 and Example 7).
# [3] = system: neurological EAE in the Lewis rat
# Description: Male Lewis rats, weighing 230-280 g on the day of inoculation, were injected in each rear footpad with 0.1 ml of an emulsion containing equal parts of guinea pig spinal cord; phosphate buffered saline (PBS) and incomplete Freund's adjuvant supplemented with 10 mg/ml Mycobacterium tuberculosis H37Ra.
# (§5) Animals were weighed daily and assessed for neurological disease from day 7 post-inoculation (PI). Rats displaying symptoms of EAE were scored as follows: 1: flaccid tail (FT), 2: hind limb hypotonia (HLH), 3: partial hind limb paralysis (PHLP), 4: complete hind limb paralysis (CHLP), 5: moribund or dead.
# NA:GLA (neat oil) was orally administered 5 days prior to inoculation and continued for 25 days PI, at a dose of 750 mg/kg body weight/day and 1000 mg/kg body weight/day. NA:DHA (neat oil) was given by an identical dosing regime at a dose of 500 mg/kg body weight/day. Control-sensitised animals received PBS vehicle or were undosed. Undosed, vehicle and low dose NA:GLA treatments contained 7 animals. Four rats received high dose NA:GLA and 3 rats were dosed with NA:DHA.
# [4] = system: CREAE in the Biozzi mouse model; experiment: NA:NA and NA:GLA in Miglyol 810 in CREAE (Example 8); format: in vivo
# Description: (§3) Male Biozzi mice weighing 30-35 g were injected in each flank with 0.15 mL of an emulsion containing lyophilised mouse spinal cord, phosphate buffered saline and incomplete Freund's adjuvant supplemented with Mycobacterium butyricum and Mycobacterium tuberculosis H37Ra.
# (§4) 1: Partial Flaccid Tail (PFT), 2: Complete Flaccid Tail (CFT), 3: Impaired Righting Reflex (IRR), 4: Ataxic Gait (AG), 5: Hind Limb Hypotonia (HLH), 6: Partial Hind Limb Paralysis (PHLP), 7: Complete Hind Limb Paralysis (CHLP), 8: Moribund (M), 9: Dead (D).
# Therefore, Miglyol appeared well-suited for use as a vehicle in subsequent studies to determine the efficacy of compounds in CREAE. Therefore, using Miglyol 810 as the new vehicle, prophylactic effects of NA:NA and NA:GLA were re-assessed on CREAE in the Biozzi mouse model (90% dilution, 1000 mg/kg/day, up to 43 days PI).
# [5] = Miscibility / physical state of oral compositions in vehicle; format: physicochemical; conditions: room temperature (about 20° C.); dilution in vehicle
# Description: Formulations of the present invention suitable for oral administration may be in the form of discrete units such as capsules, cachets, tablets or lozenges, each containing a predetermined amount of the active ingredient; in the form of a powder or granules; in the form of a solution or a suspension in an aqueous liquid or non-aqueous liquid; or in the form of an oil-in-water emulsion or a water-in-oil emulsion. The active ingredient may also be in the form of a bolus, electuary or paste. For such formulations, a range of dilutions of the active ingredient in the vehicle is suitable, such as from 1% to 99%, preferably 5% to 50% and more preferably 10% to 25% dilution. Depending upon the level of dilution, the formulation will be either a liquid at room temperature (in the region of about 20° C.) or a low-melting solid.
# [6] = Nervonic acid composition of total polar lipid from mouse brain (Example 9); format: in vivo; conditions: CREAE-inoculated mice
# Description: as §1, §2
# [7] = system: neurological EAE in the Lewis rat; experiment: NA:NA (ethyl oleate formulation) in acute EAE (Example 5)
# Description: Male Lewis rats, weighing 240-360 g on the day of inoculation, were injected in each rear footpad with 0.1 ml of an emulsion containing equal parts of guinea pig spinal cord, phosphate buffered saline (PBS) and incomplete Freund's adjuvant supplemented with 10 mg/ml Mycobacterium tuberculosis H37Ra.
# as §5
# Control-sensitised animals received ethyl oleate vehicle or were undosed, and each treatment contained 10 animals.
# Students t-test was used to assess significant differences in neurological scores and the Fishers exact probability test for the presence or absence of symptoms.
# [8] = system: chronic EAE in the Biozzi mouse model; experiment: NA:NA and NA:GLA in ethyl oleate in chronic relapsing EAE (Example 7); format: in vivo; conditions: for AG: Percentage of mice in the group / CFT: Percentage of mice in the group / CHLP: Percentage of mice in the group / HLH: Percentage of mice in the group / PFT: Percentage of mice in the group / PHLP: Percentage of mice in the group: ethyl oleate vehicle
# Description: as §3, §4
# [9] = acute phase, Miglyol 810 vehicle, 1000 mg/kg/day
# [10] = acute phase, Miglyol 810 vehicle, n=12, NA:GLA n=11
# [11] = relapse phase, Miglyol 810 vehicle, 1000 mg/kg/day
# [12] = relapse phase, Miglyol 810 vehicle, NA:GLA n=9, NA:NA n=11
# [13] = 10% w/w in ethyl oleate, 1000 mg/kg body weight/day
# [14] = 10% w/w in ethyl oleate, oral 1000 mg/kg body weight/day, n=10
# [15] = Biozzi mouse, 10% w/w in ethyl oleate, 1000 mg/kg body weight/day
# [16] = acute phase, Biozzi mouse, 10% w/w in ethyl oleate, 1000 mg/kg body weight/day
# [17] = relapse phase, Biozzi mouse, 10% w/w in ethyl oleate, 1000 mg/kg body weight/day
structure (smiles),measurement,setting,value
"CCCCCCCC/C=C/CCCCCCCCCCCCCC(=O)OCC(COC(=O)CCCCCCCCCCCCC/C=C/CCCCCCCC)OC(=O)CCCCCCCCCCCCC/C=C/CCCCCCCC [GTN, Glyceryl Trinervonate]",onset and loss of symptoms together with duration of the disease,[1]; compared to vehicle or undosed groups,not significantly different from vehicle or undosed groups
same,adverse effect (body weight gain until day 10),[1]; dietary administered,did not induce any major adverse effect
same,effect on parameters associated with neurological deficits in EAE-diseased rats,[1]; oral in Miglyol 810,did not significantly affect any parameter
same,No. of diseased rats,"[1]; oral in Miglyol 810, 5 days prior to inoculation and 20 days PI, n=10",10/10
same,CFT: Percentage of rats in the group,"[1]; oral in Miglyol 810, n=10",100%
same,CHLP: Percentage of rats in the group,"[1]; oral in Miglyol 810, n=10",40%
same,HLH: Percentage of rats in the group,"[1]; oral in Miglyol 810, n=10",90%
same,MD: Percentage of rats in the group,"[1]; oral in Miglyol 810, n=10",0%
same,Mean day of symptom loss,"[1]; oral in Miglyol 810, n=10",17.0 ± 1.2 days
same,Mean day of symptom onset,"[1]; oral in Miglyol 810, n=10",11.2 ± 1.2 days
same,Mean duration of symptoms,"[1]; oral in Miglyol 810, n=10",5.8 ± 1.1 days
same,Number of dead,"[1]; oral in Miglyol 810, n=10",0/10
same,PFT: Percentage of rats in the group,"[1]; oral in Miglyol 810, n=10",100%
same,PHLP: Percentage of rats in the group,"[1]; oral in Miglyol 810, n=10",70%
"CCC=CCC=CCC=CCC=CCC=CC/C=C\CCC(=O)OCCCOC(=O)CCCCCCCCCCCCC/C=C\CCCCCCCC [NA:DHA, 1-(z-15-tetracosenoyloxy)-3-(z-4,7,10,13,16,19-docosahexaenoyloxy)propane]","NA levels in rat brain lipids compared to normal, undosed and vehicle treated animals",[2],did not enhance the NA levels
same,CHLP: Number of animals showing symptoms/total,[3]; 500 mg/kg/day,3/3
same,FT: Number of animals showing symptoms/total,[3]; 500 mg/kg/day,3/3
same,HLH: Number of animals showing symptoms/total,[3]; 500 mg/kg/day,3/3
same,PHLP: Number of animals showing symptoms/total,[3]; 500 mg/kg/day,3/3
same,daily score,[3]; 500 mg/kg/day,enhanced compared to levels noted for control and NA:GLA-treated animals
same,development of CHLP,[3]; 500 mg/kg/day,11.3±1.3
same,effect on neurological symptoms,[3]; 500 mg/kg/day,intensified neurological symptoms
same,Mean day of final symptom loss (±SD),[3]; neat oil oral 500 mg/kg/day,19.3 ± 1.2 days
same,Mean day of symptom onset (±SD),[3]; neat oil oral 500 mg/kg/day,10.3 ± 0.6 days
same,Number of dead/total,[3]; neat oil oral 500 mg/kg/day,0/3
same,Number diseased/total,"[3]; neat oil oral 500 mg/kg/day, 5 days prior to inoculation and 25 days PI",3/3
"CCCCCCCC/C=C\CCCCCCCCCCCCCC(=O)OCCCOC(=O)CCCCCCCCCCCCC/C=C\CCCCCCCC [NA:NA, 1,3-di-(z-15-tetracosenoyloxy)propane]",effect on the neurological course of CREAE,"[4]; Biozzi mouse, Miglyol 810 vehicle, 1000 mg/kg/day",did not seem significantly to alter the course of CREAE
same,No. of diseased mice,"[4]; acute phase, Biozzi mouse, Miglyol 810 vehicle (90% dilution), 1000 mg/kg/day, up to 43 days PI",12/12
same,Mean day of symptom loss,[4]; [9],26.3 ± 1.0 days
same,Mean day of symptom onset,[4]; [9],17.1 ± 1.9 days
same,Mean duration of symptoms,[4]; [9],9.2 ± 1.6 days
same,Number of dead mice,[4]; [9],1/12
same,AG: Percentage of mice in the group,[4]; [10],100%
same,CFT: Percentage of mice in the group,[4]; [10],100%
same,CHLP: Percentage of mice in the group,[4]; [10],58%
same,D (dead): Percentage of mice in the group,[4]; [10],8%
same,HLH: Percentage of mice in the group,[4]; [10],100%
same,IRR: Percentage of mice in the group,[4]; [10],100%
same,M (moribund): Percentage of mice in the group,[4]; [10],0%
same,PFT: Percentage of mice in the group,[4]; [10],100%
same,PHLP: Percentage of mice in the group,[4]; [10],75%
same,Mean day of symptom loss,[4]; [11],44.0 ± 3.6 days
same,Mean day of symptom onset,[4]; [11],34.3 ± 6.6 days
same,Mean duration of symptoms,[4]; [11],13.7 ± 4.0 days
same,No. of diseased mice,[4]; [11],9/11
same,Number of dead mice,[4]; [11],3/11
same,AG: Percentage of mice in the group,[4]; [12],82%
same,CFT: Percentage of mice in the group,[4]; [12],82%
same,CHLP: Percentage of mice in the group,[4]; [12],73%
same,D (dead): Percentage of mice in the group,[4]; [12],27%
same,HLH: Percentage of mice in the group,[4]; [12],82%
same,IRR: Percentage of mice in the group,[4]; [12],82%
same,M (moribund): Percentage of mice in the group,[4]; [12],0%
same,PFT: Percentage of mice in the group,[4]; [12],82%
same,PHLP: Percentage of mice in the group,[4]; [12],73%
same,concentration at which compositions are liquids at room temperature,[5],≤ 25%
same,NA levels in mouse brain lipids compared to undosed and vehicle,[6],enhancement of the NA levels in brain lipids
same,CHLP: Number of animals showing symptoms/total,[7]; [13],1/10
same,FT: Number of animals showing symptoms/total,[7]; [13],6/10**
same,HLH: Number of animals showing symptoms/total,[7]; [13],4/10***
same,Neurological scores,[7]; [13],consistently lower compared to values recorded for undosed and vehicle-treated animals
same,PHLP: Number of animals showing symptoms/total,[7]; [13],3/10
same,animals that experienced symptoms of disease,[7]; [13],60%
same,effect on incidence of disease,[7]; [13],significantly reduces the incidents of disease
same,Mean day of final symptom loss (±SD),[7]; [14],16.3 ± 1.0 days
same,Mean day of symptom onset (±SD),[7]; [14],12.3 ± 0.8 days
same,Mean duration of symptoms (day ± SD),[7]; [14],4.0 ± 1.2 days
same,Number of dead/total,[7]; [14],0/10
same,Number diseased/total,"[7]; […], oral 1000 mg/kg body weight/day, 5 days prior to inoculation and 22 days PI, n=10",6/10*
same,Acute and relapse symptoms (mean neurological scores),[8]; [15],completely abolished
same,onset of relapse,[8]; [15],"delayed, but not significantly"
same,Mean day of symptom loss,[8]; [16],24.7 ± 3.2 days
same,Mean day of symptom onset,[8]; [16],22.3 ± 3.8 days
same,Mean duration of symptoms,[8]; [16],2.3 ± 1.2 days
same,Number of dead mice,[8]; [16],0/10
same,No. of diseased mice,"[8]; acute phase, Biozzi mouse, […], oral 1000 mg/kg body weight/day, 5 days prior to inoculation and 43 days PI, n=10",3/10
same,AG: Percentage of mice in the group,"[8]; acute phase, n=10",20%
same,CFT: Percentage of mice in the group,"[8]; acute phase, n=10",0%
same,CHLP: Percentage of mice in the group,"[8]; acute phase, n=10",0%
same,HLH: Percentage of mice in the group,"[8]; acute phase, n=10",10%
same,PFT: Percentage of mice in the group,"[8]; acute phase, n=10",10%
same,PHLP: Percentage of mice in the group,"[8]; acute phase, n=10",0%
same,Mean day of symptom onset,[8]; [17],43.3 ± 1.2 days
same,No. of diseased mice,[8]; [17],3/10
same,Number of dead mice,[8]; [17],1/10
same,AG: Percentage of mice in the group,"[8]; relapse phase, n=10",30%
same,CFT: Percentage of mice in the group,"[8]; relapse phase, n=10",0%
same,CHLP: Percentage of mice in the group,"[8]; relapse phase, n=10",0%
same,HLH: Percentage of mice in the group,"[8]; relapse phase, n=10",30%
same,PFT: Percentage of mice in the group,"[8]; relapse phase, n=10",20%
same,PHLP: Percentage of mice in the group,"[8]; relapse phase, n=10",0%
CCCCCCCC/C=C\CCCCCCCC(=O)OCC [ethyl oleate],effect of the vehicle on incidence and severity of chronic relapsing EAE,"[8]; Biozzi mouse, ethyl oleate vehicle alone, compared to undosed",significantly reduced the incidence and severity of the acute and relapsing phases
